Results on two compounds are retold here after PMC8213057, “Targeting ALK2: An Open Science Approach to Developing Therapeutics for the Treatment of Diffuse Intrinsic Pontine Glioma” (Journal of Medicinal Chemistry, 2020).

For one assay, the target named is ROCK2 (Homo sapiens, UniProt O75116). Nature of the assay: biochemical. To be noted: read-out: % enzyme activity, 1 μM; Run 1, Run 2.
The target of a further assay is NEK7 (Homo sapiens, UniProt Q8TDX7). To be noted: 1 μM; Run 1, Run 2.
The target in another assay is T1, MEKK2 (Homo sapiens, UniProt Q9Y2U5).
T1 sequence (Q9Y2U5 1-619): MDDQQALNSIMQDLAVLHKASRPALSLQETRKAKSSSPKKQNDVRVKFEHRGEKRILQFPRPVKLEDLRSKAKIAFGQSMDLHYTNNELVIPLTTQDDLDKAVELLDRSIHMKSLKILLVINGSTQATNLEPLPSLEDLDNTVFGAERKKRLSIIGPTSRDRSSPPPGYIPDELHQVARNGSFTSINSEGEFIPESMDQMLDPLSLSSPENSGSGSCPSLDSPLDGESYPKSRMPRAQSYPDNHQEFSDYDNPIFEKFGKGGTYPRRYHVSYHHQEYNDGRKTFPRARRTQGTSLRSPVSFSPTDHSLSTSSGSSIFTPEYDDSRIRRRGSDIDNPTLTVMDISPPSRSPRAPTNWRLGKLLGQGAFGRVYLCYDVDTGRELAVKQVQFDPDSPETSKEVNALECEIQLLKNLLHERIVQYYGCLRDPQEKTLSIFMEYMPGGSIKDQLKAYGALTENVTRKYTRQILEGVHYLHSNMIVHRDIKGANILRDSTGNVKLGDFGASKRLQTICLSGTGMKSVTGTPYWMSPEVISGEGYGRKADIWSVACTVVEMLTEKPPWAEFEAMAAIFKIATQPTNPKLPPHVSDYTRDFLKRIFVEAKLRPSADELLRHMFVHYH
Briefly: biochemical. To be noted: read-out: % enzyme activity, 1 μM; Run 1, Run 2.

A further assay addresses LYN B (Homo sapiens, UniProt P07948). The note with it: 1 μM; Run 1, Run 2.
The target of the next assay is T2, ALK3/BMPR1A (Homo sapiens, UniProt P36894).
T2 construct: purchased Reaction Biology Corporation
T2 sequence (P36894 24-532): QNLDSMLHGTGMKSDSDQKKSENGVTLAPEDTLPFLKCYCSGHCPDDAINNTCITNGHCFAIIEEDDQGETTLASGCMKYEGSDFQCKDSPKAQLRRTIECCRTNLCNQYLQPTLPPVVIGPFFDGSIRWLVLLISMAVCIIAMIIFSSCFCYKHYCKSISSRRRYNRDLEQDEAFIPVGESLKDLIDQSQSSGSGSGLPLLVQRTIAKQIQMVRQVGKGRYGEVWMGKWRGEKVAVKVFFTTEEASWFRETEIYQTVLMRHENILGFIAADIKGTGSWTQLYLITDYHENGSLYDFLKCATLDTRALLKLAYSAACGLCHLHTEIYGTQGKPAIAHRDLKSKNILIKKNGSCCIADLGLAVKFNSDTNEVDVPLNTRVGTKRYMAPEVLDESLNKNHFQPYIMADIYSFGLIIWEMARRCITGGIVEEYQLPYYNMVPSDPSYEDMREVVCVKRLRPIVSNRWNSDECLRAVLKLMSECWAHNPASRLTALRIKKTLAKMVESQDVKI
Nature of the assay: 375-member kinase panel. Format: biochemical. The note with it: Run 1, Run 2; for % enzyme activity: 1 μM; for remaining activity at 1 µM: read-out: % enzyme activity, 1 μM.

The next assay deals with CHK2 (Homo sapiens, UniProt O96017). Briefly: biochemical. The note with it: read-out: % enzyme activity, 1 μM; Run 1, Run 2.
Sequence of CHK2 (O96017 whole entry): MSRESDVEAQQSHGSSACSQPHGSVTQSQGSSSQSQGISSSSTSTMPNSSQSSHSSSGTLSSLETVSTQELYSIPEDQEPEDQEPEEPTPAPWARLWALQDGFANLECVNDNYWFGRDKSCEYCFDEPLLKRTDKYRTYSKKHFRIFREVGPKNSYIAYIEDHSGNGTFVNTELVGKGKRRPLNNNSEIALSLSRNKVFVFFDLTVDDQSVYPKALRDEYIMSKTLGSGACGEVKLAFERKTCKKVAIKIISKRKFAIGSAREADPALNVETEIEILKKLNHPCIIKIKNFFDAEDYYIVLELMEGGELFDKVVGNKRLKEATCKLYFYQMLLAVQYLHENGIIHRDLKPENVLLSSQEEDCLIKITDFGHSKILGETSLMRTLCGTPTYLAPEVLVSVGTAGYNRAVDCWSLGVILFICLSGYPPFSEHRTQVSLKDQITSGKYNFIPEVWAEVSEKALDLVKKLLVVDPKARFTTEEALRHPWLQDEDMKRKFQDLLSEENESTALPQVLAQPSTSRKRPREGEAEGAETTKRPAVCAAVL
In the next assay the target is PKCd (Homo sapiens, UniProt Q05655). Nature of the assay: biochemical. The note with it: read-out: % enzyme activity, 1 μM; Run 1, Run 2.
Sequence of PKCd (Q05655 whole entry): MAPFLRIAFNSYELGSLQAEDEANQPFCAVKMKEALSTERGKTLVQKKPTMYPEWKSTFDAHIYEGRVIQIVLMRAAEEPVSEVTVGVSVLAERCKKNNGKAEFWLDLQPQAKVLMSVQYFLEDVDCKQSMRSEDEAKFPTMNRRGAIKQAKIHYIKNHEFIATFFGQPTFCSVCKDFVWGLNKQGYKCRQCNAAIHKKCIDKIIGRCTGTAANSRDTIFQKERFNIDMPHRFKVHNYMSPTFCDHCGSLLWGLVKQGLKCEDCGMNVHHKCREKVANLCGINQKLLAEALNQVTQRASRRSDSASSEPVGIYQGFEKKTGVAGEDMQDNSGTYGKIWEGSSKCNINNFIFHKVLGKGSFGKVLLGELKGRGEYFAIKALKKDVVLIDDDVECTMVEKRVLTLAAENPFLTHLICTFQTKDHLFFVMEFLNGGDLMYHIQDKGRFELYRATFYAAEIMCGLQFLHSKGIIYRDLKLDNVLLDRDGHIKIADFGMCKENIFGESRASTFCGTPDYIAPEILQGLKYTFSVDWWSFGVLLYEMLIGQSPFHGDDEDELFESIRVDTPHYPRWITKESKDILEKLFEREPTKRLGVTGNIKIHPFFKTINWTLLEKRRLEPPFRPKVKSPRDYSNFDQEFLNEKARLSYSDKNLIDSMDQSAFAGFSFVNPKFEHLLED
Another assay has as its target PKCtheta (Homo sapiens, UniProt Q04759). Nature of the assay: biochemical. To be noted: read-out: % enzyme activity, 1 μM; Run 1, Run 2.
The next assay deals with T3, EPHA8 (Homo sapiens, UniProt P29322).
T3 sequence (P29322 28-1005): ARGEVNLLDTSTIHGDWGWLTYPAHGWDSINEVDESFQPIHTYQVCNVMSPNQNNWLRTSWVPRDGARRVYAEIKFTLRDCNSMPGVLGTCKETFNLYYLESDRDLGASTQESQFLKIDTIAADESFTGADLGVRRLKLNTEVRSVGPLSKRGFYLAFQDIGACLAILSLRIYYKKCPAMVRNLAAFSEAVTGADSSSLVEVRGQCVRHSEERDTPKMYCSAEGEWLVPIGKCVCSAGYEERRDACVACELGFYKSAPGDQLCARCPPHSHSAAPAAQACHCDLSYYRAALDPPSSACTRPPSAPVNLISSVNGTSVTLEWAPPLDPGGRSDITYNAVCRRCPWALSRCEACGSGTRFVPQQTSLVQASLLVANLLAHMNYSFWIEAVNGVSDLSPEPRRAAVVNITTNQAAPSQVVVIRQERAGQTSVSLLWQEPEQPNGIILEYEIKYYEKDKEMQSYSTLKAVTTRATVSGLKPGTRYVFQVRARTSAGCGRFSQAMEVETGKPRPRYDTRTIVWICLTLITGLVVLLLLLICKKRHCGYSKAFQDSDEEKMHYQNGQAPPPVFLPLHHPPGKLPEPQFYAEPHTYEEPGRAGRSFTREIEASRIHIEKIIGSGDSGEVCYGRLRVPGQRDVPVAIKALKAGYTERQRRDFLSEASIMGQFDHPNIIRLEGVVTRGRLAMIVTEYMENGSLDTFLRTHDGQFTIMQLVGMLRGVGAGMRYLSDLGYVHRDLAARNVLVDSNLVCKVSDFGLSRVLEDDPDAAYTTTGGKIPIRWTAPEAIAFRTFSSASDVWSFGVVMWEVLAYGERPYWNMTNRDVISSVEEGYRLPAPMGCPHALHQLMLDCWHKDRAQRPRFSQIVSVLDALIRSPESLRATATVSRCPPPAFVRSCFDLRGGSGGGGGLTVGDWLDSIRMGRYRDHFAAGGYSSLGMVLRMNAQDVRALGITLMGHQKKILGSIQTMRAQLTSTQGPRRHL
Briefly: biochemical. The note with it: read-out: % enzyme activity, 1 μM; Run 1, Run 2.

A further assay has as its target T4, LCK2/ICK (Homo sapiens, UniProt Q9UPZ9).
T4 sequence (Q9UPZ9 1-632): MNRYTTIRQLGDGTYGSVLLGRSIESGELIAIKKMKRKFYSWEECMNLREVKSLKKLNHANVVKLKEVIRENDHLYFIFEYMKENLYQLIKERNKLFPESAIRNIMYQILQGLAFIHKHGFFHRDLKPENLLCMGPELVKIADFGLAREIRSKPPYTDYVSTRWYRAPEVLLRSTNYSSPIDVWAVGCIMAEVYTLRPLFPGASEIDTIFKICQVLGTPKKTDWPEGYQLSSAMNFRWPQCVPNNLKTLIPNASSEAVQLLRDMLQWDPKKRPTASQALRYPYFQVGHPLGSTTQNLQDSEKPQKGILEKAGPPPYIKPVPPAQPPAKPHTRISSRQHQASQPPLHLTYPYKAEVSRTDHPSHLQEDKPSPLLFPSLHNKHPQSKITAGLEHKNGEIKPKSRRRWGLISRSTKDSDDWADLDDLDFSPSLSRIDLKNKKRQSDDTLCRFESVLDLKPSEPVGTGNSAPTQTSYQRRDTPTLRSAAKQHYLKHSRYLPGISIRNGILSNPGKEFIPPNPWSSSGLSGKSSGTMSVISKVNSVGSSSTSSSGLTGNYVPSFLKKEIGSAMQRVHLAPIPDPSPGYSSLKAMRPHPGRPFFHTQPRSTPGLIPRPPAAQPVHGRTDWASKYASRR
To be noted: 1 μM; Run 1, Run 2.

The target in another assay is p70S6K/RPS6KB1 (Homo sapiens, UniProt P23443). Nature of the assay: biochemical. The note with it: read-out: % enzyme activity, 1 μM; Run 1, Run 2.
Sequence of p70S6K/RPS6KB1 (P23443 whole entry): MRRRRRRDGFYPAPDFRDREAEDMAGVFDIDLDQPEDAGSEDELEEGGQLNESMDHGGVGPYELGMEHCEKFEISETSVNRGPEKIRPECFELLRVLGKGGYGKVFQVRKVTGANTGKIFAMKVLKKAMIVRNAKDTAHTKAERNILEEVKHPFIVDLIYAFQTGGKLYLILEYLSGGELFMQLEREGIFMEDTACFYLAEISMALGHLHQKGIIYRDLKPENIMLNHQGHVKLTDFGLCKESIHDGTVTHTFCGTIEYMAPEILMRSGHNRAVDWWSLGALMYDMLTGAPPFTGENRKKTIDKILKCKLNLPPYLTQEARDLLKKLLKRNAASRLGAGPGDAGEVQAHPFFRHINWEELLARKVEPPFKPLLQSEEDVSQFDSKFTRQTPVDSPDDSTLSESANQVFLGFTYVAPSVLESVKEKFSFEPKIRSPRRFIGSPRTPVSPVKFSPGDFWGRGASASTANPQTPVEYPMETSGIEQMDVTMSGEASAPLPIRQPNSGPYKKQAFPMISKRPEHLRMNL

Sequence of PKCtheta (Q04759 whole entry): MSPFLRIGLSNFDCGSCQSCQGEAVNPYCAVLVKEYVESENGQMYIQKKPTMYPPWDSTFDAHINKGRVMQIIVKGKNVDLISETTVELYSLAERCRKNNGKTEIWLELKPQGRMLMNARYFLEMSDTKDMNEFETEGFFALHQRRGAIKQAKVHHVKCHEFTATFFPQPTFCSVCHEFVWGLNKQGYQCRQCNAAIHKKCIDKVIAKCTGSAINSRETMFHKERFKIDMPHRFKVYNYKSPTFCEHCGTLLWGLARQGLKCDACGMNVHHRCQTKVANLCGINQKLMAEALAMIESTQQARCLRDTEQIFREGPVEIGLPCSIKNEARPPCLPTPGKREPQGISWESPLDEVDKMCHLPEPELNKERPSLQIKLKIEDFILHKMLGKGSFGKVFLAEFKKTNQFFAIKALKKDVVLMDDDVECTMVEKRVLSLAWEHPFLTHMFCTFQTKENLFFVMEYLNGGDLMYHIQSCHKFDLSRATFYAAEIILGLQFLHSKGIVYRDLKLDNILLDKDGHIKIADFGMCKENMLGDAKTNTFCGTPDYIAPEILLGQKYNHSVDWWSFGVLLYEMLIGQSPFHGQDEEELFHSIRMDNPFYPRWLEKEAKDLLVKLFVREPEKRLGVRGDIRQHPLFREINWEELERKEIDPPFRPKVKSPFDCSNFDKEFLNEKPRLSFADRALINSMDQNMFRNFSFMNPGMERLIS
Sequence of LYN B (P07948 1-491 isoform P07948-2): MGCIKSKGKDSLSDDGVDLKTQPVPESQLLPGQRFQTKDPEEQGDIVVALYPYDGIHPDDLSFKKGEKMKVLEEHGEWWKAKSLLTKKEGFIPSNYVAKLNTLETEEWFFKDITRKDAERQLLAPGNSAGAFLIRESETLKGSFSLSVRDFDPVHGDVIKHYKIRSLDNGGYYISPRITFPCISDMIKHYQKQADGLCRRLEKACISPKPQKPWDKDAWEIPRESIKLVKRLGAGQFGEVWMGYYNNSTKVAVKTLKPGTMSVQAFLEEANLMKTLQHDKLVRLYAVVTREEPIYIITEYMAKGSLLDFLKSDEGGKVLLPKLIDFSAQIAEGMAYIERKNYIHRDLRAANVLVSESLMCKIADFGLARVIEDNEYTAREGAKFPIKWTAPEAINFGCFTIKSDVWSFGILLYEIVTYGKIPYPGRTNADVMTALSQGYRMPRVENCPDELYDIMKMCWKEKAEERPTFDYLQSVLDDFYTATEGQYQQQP
Sequence of ROCK2 (O75116 whole entry): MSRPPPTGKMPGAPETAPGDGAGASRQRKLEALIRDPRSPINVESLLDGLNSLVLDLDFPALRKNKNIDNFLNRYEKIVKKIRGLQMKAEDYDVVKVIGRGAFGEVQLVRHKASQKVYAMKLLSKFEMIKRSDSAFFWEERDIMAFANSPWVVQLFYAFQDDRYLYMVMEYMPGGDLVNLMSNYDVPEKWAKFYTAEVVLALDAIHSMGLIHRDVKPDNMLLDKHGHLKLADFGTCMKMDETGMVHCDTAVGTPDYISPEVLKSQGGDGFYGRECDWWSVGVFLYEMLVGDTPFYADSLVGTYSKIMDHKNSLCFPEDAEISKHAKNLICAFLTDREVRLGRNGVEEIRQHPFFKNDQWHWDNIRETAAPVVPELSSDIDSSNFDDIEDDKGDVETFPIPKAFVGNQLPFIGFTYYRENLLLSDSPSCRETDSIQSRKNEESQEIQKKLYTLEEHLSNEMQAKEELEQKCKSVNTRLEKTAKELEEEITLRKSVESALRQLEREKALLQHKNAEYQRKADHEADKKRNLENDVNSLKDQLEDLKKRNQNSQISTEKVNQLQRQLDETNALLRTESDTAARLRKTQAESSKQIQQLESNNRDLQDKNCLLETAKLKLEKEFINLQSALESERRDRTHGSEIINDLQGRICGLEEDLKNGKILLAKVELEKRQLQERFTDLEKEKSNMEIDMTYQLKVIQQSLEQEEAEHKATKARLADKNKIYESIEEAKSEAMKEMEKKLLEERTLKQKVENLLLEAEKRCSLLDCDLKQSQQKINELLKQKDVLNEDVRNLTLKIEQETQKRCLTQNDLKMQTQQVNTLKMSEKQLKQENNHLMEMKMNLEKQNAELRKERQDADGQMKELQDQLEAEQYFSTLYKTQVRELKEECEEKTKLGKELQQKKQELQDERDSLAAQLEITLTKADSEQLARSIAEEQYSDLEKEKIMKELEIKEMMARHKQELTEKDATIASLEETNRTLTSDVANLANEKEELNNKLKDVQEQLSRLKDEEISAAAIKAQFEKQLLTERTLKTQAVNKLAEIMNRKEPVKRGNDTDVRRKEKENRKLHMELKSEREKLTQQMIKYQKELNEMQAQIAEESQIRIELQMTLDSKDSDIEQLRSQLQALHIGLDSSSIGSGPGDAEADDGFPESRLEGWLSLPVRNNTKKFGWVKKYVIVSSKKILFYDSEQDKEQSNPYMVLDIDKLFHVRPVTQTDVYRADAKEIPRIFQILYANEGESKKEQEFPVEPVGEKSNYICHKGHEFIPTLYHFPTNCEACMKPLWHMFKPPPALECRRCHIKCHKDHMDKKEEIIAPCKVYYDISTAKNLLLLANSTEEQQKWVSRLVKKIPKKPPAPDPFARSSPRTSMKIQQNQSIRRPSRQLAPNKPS

Regarding `COc1cc(-c2cncc(-c3ccc(N4C[C@@H](C)N(C)[C@@H](C)C4)cc3)c2C)cc(F)c1C(N)=O` [Compound 26c, 2-Fluoro-6-methoxy-4-(4-methyl-5-(4-((3R,5S)-3,4,5-trimethylpiperazin-1-yl)phenyl)pyridin-3-yl)benzamide], the remaining activity at 1 µM on ROCK2 worked out at 101%; at MEKK2, 98.8%; on ALK3/BMPR1A, 50%; on CHK2, 102%; at PKCd, 101%; on PKCtheta it was 87%. The remaining activity at 1 µM at EPHA8 was 97.5%; at p70S6K/RPS6KB1 it was 100%. In addition, the “% enzyme activity” value at NEK7 amounted to 97.32%; on LYN B it was 97.80%; at ALK3/BMPR1A, 50.46%; on LCK2/ICK, 95.60%.

Consider `COc1cc(-c2cncc(-c3ccc(N4CCN(C)CC4)cc3)c2C)cc(F)c1C(N)=O` [Compound 26a, 2-Fluoro-6-methoxy-4-(4-methyl-5-(4-(4-methylpiperazin-1-yl)phenyl)pyridin-3-yl)benzamide], for which the remaining activity at 1 µM at ROCK2 stood at 116%; on MEKK2 it was 95%; on ALK3/BMPR1A, 38.4%; at CHK2, 99.7%; at PKCd, 99%; at PKCtheta it was 85.1%. The remaining activity at 1 µM came out at 95.3% on EPHA8 and 97.8% at p70S6K/RPS6KB1. Also, the “% enzyme activity” value at NEK7 is 96.68%; on LYN B, 96.56%; at ALK3/BMPR1A it was 40.21%; at LCK2/ICK it was 104.57%.
